Experimental data reported in publication PMC7478253, “Design, synthesis, and SAR study of isopropoxy allylbenzene derivatives as 15-lipoxygenase inhibitors” (Iranian Journal of Basic Medical Sciences, 2020).
Entries after “also recorded” stand apart in the source; their conditions may differ. Read-outs that look alike come from different tables or passages of the source.

Experiments:
[1] = molecular target: T1, soybean 15-lipoxygenase (SLO; L1; Type I-B; EC 1,13,11,12) (Glycine max, UniProt P08170); settings: cited from earlier work
T1 construct: purchased Sigma Co
T1 sequence (P08170 1-839): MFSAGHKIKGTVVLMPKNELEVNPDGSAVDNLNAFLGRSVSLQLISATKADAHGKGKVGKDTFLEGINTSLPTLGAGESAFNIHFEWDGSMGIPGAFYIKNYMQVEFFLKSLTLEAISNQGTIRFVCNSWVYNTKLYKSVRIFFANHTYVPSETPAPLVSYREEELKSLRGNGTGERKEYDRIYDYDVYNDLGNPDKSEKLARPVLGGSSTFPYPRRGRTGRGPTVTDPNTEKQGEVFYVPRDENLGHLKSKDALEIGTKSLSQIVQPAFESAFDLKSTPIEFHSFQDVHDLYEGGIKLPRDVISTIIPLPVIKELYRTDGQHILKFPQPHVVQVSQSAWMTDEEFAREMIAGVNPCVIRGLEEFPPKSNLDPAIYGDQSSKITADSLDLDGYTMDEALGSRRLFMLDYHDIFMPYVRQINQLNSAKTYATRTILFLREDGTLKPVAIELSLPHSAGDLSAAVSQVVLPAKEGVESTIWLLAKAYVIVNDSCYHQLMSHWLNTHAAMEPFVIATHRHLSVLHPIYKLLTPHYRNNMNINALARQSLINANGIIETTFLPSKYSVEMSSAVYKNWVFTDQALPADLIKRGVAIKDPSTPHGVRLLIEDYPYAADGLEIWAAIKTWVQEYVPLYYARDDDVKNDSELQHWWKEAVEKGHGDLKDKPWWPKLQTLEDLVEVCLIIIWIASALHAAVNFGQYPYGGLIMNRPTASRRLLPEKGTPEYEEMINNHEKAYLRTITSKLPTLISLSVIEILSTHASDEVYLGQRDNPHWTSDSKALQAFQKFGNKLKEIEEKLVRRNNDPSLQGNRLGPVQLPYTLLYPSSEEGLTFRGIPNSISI

[2] = molecular target: T1, soybean 15-lipoxygenase (SLO; L1; Type I-B; EC 1,13,11,12); assay: SLO enzyme inhibition, peroxide-formation method (substrate linoleic acid); assay type: biochemical
Protocol: LA, enzyme and two assay solutions (A and B) were firstly prepared as follow:
LA solution: A mixture of LA (5.6 mg), ethanol (0.5 ml) and KOH (100 mM) to a final volume of 5 ml (6).
The enzyme solution was prepared by dissolving 1 mg lyophilized SLO (L1; Type I-B; EC 1, 13, 11, 12; Sigma Co.) in 5 ml phosphate buffer (50 mM, pH 7.0) and then its activity was checked by diene formation method at 234 nm. Finally, its activity was decreased to desired quantity by dilution with the phosphate buffer.
Solution A: DMAB (3-dimethylaminobenzoic acid) 50 mM in phosphate buffer (100 mM, pH 7.0).
Solution B: A mixture of MBTH (3-methyl-2-benzothiazolonhydrazone) (10 mM, 3 ml) and hemoglobin (5 mg/ml, 3 ml) in 25 ml phosphate buffer (50 mM, pH 5.0).
Assay procedure: the sample solution in dimethyl sulfoxide (25 µl), enzyme solution (4000 units/ml; 25 µl), and phosphate buffer (pH 7.0, 50 mM; 900 µl) were mixed in a test plate and pre-incubated for 5 min at room temperature. Control test was done using the same volume of dimethyl sulfoxide. After pre-incubation, LA solution (50 µl) was added (starting of the peroxidation reaction) and 10 min later, solution A (270 µl) and subsequently solution B (130 µl) were added to start the color formation. 3 min later, 200 µl of sodium dodecyl sulfate solution (2% W/V) was added to terminate the reaction. The absorbance was recorded at 598 nm. Each experiment was performed in triplicate. The data analysis was done in GraphPad Prism 6.0 ([6]).
Lipoxygenase inhibitory activity of the synthetic compounds (substrate: linoleic acid) was assessed by using the peroxide-formation method, according to the published literature ([14], [15]). In this method, measurement of linoleate hydroperoxide concentration is the basis of lipoxygenase activity determination. All the assessments were performed in comparison with 4-MMPB (4-methyl-2-(4-methylpiperazinyl)pyrimido[4,5-b]benzothiazine) as a well-known lipoxygenase inhibitor.

[3] = molecular target: T2, soybean 15-lipoxygenase (SLO) (Glycine max, UniProt P08170); assay: Inhibitory mechanism of SLO inhibition (Michaelis-Menten / Lineweaver-Burk); assay type: biochemical; settings: Tris buffer pH 7.2; LA 6.25-100 µM; inhibitor 125, 100 and 75 µM; Lineweaver-Burk plot
T2 construct: purchased Sigma Co
T2 sequence (P08170 1-839): T1 sequence (P08170 1-839)
Protocol: The experiment was done in Tris buffer (pH 7.2, 50 mM). Five concentrations of LA (6.25, 12.5, 25, 50 and 100 µM) were used. The enzyme activity was measured in the absence (control test) and presence of 6f as inhibitor (concentrations 125, 100, and 75 µM).
25 µl of the enzyme solution (4000 unit/ml) was added to mixture of buffer (900 µl) and inhibitor (25 µl) and incubated for 10 min at room temperature. Subsequently, 50 µl of LA solution was added to the mixture to start the reaction. After 10 min, solution A (270 µl) and then solution B (130 µl) were added to start color formation (preparation of solution A and B described in the previous section). 3 min later, 200 µl of a 2% SDS solution was added to terminate the reaction. The absorbance was recorded at 598 nm compared with the control. These experiments were performed in triplicate. Using the reaction rates (Abs.min^-1), both inhibitor and LA concentrations (µM), Michaelis-Menten and Lineweaver-Burk plots were graphed in GraphPad Prism 6.0.
So molecular docking by AutoDockTools could be responsible for finding the probable binding conformation of the inhibitors in active site pocket of SLO.

[4] = substrate linoleic acid, phosphate buffer pH 7.0, absorbance 598 nm, triplicate, read-out: IC50 (SLO inhibition)

Row | IC50 [2, 4] [µM] | melting point [°C] | SMILES | further results
1 | – | – | C=CCc1cc(OC)ccc1OC(C)C [Compound A2, 2-allyl-1-isopropoxy-4-methoxybenzene] | IC50 ([1]; previous work on 2-alkoxy-5-methoxyallylbenzenes, read-out: IC50 (lipoxygenase inhibition) of A2): 5.9 ± 0.6 µM
2 | 45.5 ± 8.1 | 78 to 79 | C=CCc1cc(NC(=O)C2CC2)ccc1OC(C)C [Compound 6a, N-(3-allyl-4-isopropoxyphenyl) cyclopropane carboxamide] | –
3 | – | – | C=CCOc1ccc(NC(=O)C23CC4CC(CC(C4)C2)C3)cc1CC=C [Compound A1, N-(3-allyl-4-(allyloxy)phenyl) adamantanecarboxamide] | IC50 ([1]; previous work on N-(3-allyl-4-(allyloxy)phenyl) carboxamides, read-out: IC50 (lipoxygenase inhibition) of A1): 9.8 ± 1.2 µM
4 | > 100 | 128 to 130 | C=CCc1cc(NC(=O)c2ccccc2)ccc1OC(C)C [Compound 6e, N-(3-allyl-4-isopropoxyphenyl) benzamide] | SLO inhibition, result in words ([2]; substrate linoleic acid): no effect; also recorded: did not show any activity
5 | 3.56 ± 0.21 | 93 to 95 | C=CCc1cc(NC(=O)C2CCCCC2)ccc1OC(C)C [Compound 6d, N-(3-allyl-4-isopropoxyphenyl) cyclohexane carboxamide] | –
6 | 9.27 ± 1.9 | 88 to 89 | C=CCc1cc(NC(=O)C2CCCC2)ccc1OC(C)C [Compound 6c, N-(3-allyl-4-isopropoxyphenyl) cyclopentane carboxamide] | –
7 | 25.2 ± 2.1 | 81 to 83 | C=CCc1cc(NC(=O)C2CCC2)ccc1OC(C)C [Compound 6b, N-(3-allyl-4-isopropoxyphenyl) cyclobutane carboxamide] | –
8 | – | – | C=CCc1cc(NC(=O)C23CC4CC(CC(C4)C2)C3)ccc1OC(C)C [Compound 6f, N-(3-allyl-4-isopropoxyphenyl) adamantane carboxamide] | IC50 [2]: 1.35 ± 0.08 µM; Inhibitory mechanism on SLO [3]: competitive mechanism
